Test systems include HS 578T breast; MDA-MB-435; KM20L2 colon; DMS 273 small cell lung; M19-MEL melanoma; LXFL 529 NSCLC.
Test in all cases: NCI tumour cell line growth inhibition, 48 h

Values joined by “and” are separate entries in the source; they are usually repeats but may differ in a detail not shown here. Identical values can stand only once.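 Assay format: 96-well plates, 48-hour exposure. At the GI50, growth is halved. TGI: total growth inhibition.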

For the compound `Cc1nc(C(N)=S)sc1C(=O)C/C(=N/N)C(=O)Nc1cccc(Cl)c1C`, the TGI in the test on HS 578T breast and in the test with MDA-MB-435 was over 100 µM throughout.
Consider `CCOc1c(Cl)cc(CNC(C)C(O)c2ccccc2)cc1OC` (configuration not stated), for which the values for the GI50 with HS 578T breast and in the test on MDA-MB-435 were 23.5 µM and 16.2 µM, respectively. Further, the results for the TGI in the test with HS 578T breast and in the test with MDA-MB-435 were 93 µM and 32.3 µM, respectively.
For `c1nnc(NCNc2nncs2)s1`, the TGI in the test with HS 578T breast and in the test with MDA-MB-435 was over 100 µM throughout.
Compound `c1cc(CNC2C3CCC(C3)C2c2c[nH]c3ccccc23)cc(CNC2C3CCC(C3)C2c2c[nH]c3ccccc23)c1` (configuration not stated) yielded a TGI with HS 578T breast of 3.32 µM.
`COc1cc2nc(-c3ccc(C(F)(F)F)cc3)cc(OCCCN3CCCCC3)c2cc1OC`: in the test with HS 578T breast, the GI50 is 2.15 µM and the TGI came to 9.94 µM. Also, in the test with MDA-MB-435, the GI50 is 1.23 µM and the TGI is 7.08 µM.
As to `NC(=O)c1ccc(C2C3=C(CCCC3=O)OC3=C2C(=O)c2ccccc2C3=O)cc1` (configuration not stated), in the test with HS 578T breast, the GI50 was 1.13 µM and the TGI came out at 5.49 µM. Moreover, in the test on MDA-MB-435, the GI50 is 0.179 µM and the TGI turned out to be 0.339 µM.
`Cc1cc(=O)oc2cc(O)c(CN(C)CC(=O)O)cc12`: the TGI with HS 578T breast and with MDA-MB-435 was over 100 µM throughout.
On to `Cc1cc(-c2nnc3n2CCCCC3)c(C)n1-c1ccc(Cl)c(Cl)c1`, for which, in the test on HS 578T breast, the GI50 is 16.9 µM and the TGI was 47 µM. Also, in the test on MDA-MB-435, the GI50 was 10.3 µM and the TGI was determined as 26.9 µM.
In the same order, the values of `Cc1c2ccc(N(C)c3ccnc(Nc4cccc(S(N)(=O)=O)c4)n3)cc2nn1C` are 6.8 µM, over 25 µM, 6.74 µM and over 22.3 µM.
In the case of `OCC1OC(n2cnc3c(/C=C(/O)c4ccccc4)ncnc32)C(O)C1O` (configuration not stated), the TGI with HS 578T breast and in the test on MDA-MB-435 was over 100 µM each time.
For the compound `O=C1C2Cc3ccccc3CN2C(=O)N1CCN1CCCC1` (configuration not stated), the TGI with KM20L2 colon, in the test on DMS 273 small cell lung, with M19-MEL melanoma and in the test with LXFL 529 NSCLC was over 100 µM throughout.
For `N#C[C@@H]1C(n2ccc(N)nc2=O)O[C@H](CO)[C@H]1O` (some centres not stated), in the test with HS 578T breast, the GI50 is over 100 µM and the TGI is over 100 µM. Moreover, in the test with MDA-MB-435, the GI50 is over 73 µM and the TGI was over 100 µM.
As to `COc1ccc(Cn2c(Cl)c(/C=C3/C(=O)Nc4ccccc43)c3cc(OC)c(C)cc32)cc1`, in the test with HS 578T breast, the GI50 is 2.32 µM and the TGI is over 100 µM. Besides, in the test with MDA-MB-435, the GI50 is 2.06 µM and the TGI was found to be 6.08 µM.
In the case of `Nc1ccc(S(=O)(=O)NCc2nccs2)cc1`, the TGI was 68.4 µM with HS 578T breast and 38.8 µM with MDA-MB-435.
Take `COC(=O)C1=C(C(=O)OC)SC(=C(Cl)C(=S)Sc2ccccc2N)S1`: in the test on HS 578T breast, the GI50 was 19 µM and the TGI is 66.2 µM. Moreover, in the test on MDA-MB-435, the GI50 is 29.3 µM and the TGI was over 100 µM.
Take `CC(C)Oc1cc(O)c2c(c1)OCC=C2CCC(=O)O`: the TGI in the test with HS 578T breast is over 100 µM; in the test on MDA-MB-435, 66 µM.
Consider `Oc1ccccc1-c1nc2c3ccccc3c3ccccc3c2[nH]1`, for which, in the test on HS 578T breast, the GI50 was 12.4 µM and the TGI turned out to be 29.7 µM. Moreover, in the test on MDA-MB-435, the GI50 was 6.23 µM and the TGI is 18.7 µM.
As for `C[C-](O)O.O/C(=C\[C-](O)c1ccccc1)c1ccccc1.O/C(=C\[C-](O)c1ccccc1)c1ccccc1.[Nd+3]` (configuration not stated), the GI50 is 5.76 µM with KM20L2 colon, 3.25 µM with DMS 273 small cell lung, 12.2 µM in the test with M19-MEL melanoma and 5.79 µM with LXFL 529 NSCLC. Further, the TGI is 21 µM in the test on KM20L2 colon, 16.1 µM in the test with DMS 273 small cell lung, 42.7 µM with M19-MEL melanoma and over 100 µM with LXFL 529 NSCLC.
Consider `CCN(CC)CCCC(C)Nc1c2ccc(C)cc2nc2ccc(OC)cc12` (configuration not stated), for which, in the test on HS 578T breast, the GI50 is 3.26 µM and the TGI stood at 17.2 µM. Also, in the test with MDA-MB-435, the GI50 was 1.6 µM and the TGI came out at 3.38 µM.
For the compound `Cc1cc(N/N=C/c2nc(-c3ccc(Cl)cc3)oc2C)c2cc(Cl)ccc2n1`, the values for the GI50 in the test with HS 578T breast and with MDA-MB-435 were 3.42 µM and 1.68 µM, respectively. The TGI in the test with HS 578T breast was 14.7 µM; with MDA-MB-435 it was 3.44 µM.
In the same order, the values of `COc1ccc(C2CC(n3nnnc3-c3ccccc3)=NN2)cc1` (configuration not stated) are 19.7 µM, 0.974 µM, 70.3 µM and 15.6 µM.
On to `CC1CCN(CC(=O)N2c3ccccc3Sc3cc4ccccc4cc32)CC1`, for which the TGI in the test with HS 578T breast and with MDA-MB-435 was over 100 µM each time.
In the case of `FCc1ncc(-c2ccc(C(F)(F)F)cc2)c(NC2CCCCCC2)n1`, the GI50 in the test on HS 578T breast and in the test on MDA-MB-435 was over 10 µM throughout. Further, the TGI in the test with HS 578T breast and with MDA-MB-435 was over 10 µM throughout.
As for `C[C@]12CC[C@@H]3c4ccc(O)cc4C(O)C[C@H]3[C@@H]1CCC2=O` (some centres not stated), the GI50 with HS 578T breast and in the test with MDA-MB-435 was over 100 µM each time. The TGI in the test with HS 578T breast and in the test with MDA-MB-435 was over 100 µM throughout.
Regarding `CCC(c1cccc(O)c1)C(CC)c1cccc(O)c1` (configuration not stated), the GI50 with HS 578T breast was 1.96 µM; in the test with MDA-MB-435, 2.15 µM. In addition, the TGI in the test on HS 578T breast is 9.77 µM; with MDA-MB-435 it was 6.44 µM.
On to `CN1C(=O)C(Cl)(C(Cl)(Cl)S(=O)(=O)O)C(=O)c2ccccc21` (configuration not stated), for which the figures for the TGI in the test with KM20L2 colon, with M19-MEL melanoma and with LXFL 529 NSCLC were 40.6 µM, over 100 µM and over 100 µM, respectively.
On to `O=C1CC(=O)OC(c2ccc([N+](=O)[O-])cc2)O1`, for which, in the test on HS 578T breast, the GI50 is 2.7 µM and the TGI was 11.9 µM. For the same compound, in the test with MDA-MB-435, the GI50 was 2.59 µM and the TGI worked out at 8.62 µM.
Consider `COC(=O)CCC1=C(C)/C(=C/c2[nH]c(-c3ccc[nH]3)cc2OC)N=C1C`, for which the GI50 in the test with HS 578T breast was 1.04 µM; in the test with MDA-MB-435 it was 0.454 µM. For the same compound, the TGI with HS 578T breast came to 9.01 µM; with MDA-MB-435 it was 2.5 µM.
For `Cc1ccc(S(=O)(=O)N=Nc2c(O)[nH]c3c(Cl)cc(Cl)cc23)cc1`, the TGI in the test with HS 578T breast and in the test with MDA-MB-435 was over 100 µM each time.
With `Cn1cc(CNCC2CCN(c3ncc(C(=O)NO)cn3)CC2)c2ccccc21`, in the test on HS 578T breast, the GI50 is 0.0185 µM and the TGI was determined as 42.6 µM. In the test on MDA-MB-435, the GI50 was 0.012 µM and the TGI is 0.123 µM.
For `CNC(=S)N/N=C/c1ccc([N+](=O)[O-])s1`, the TGI in the test with HS 578T breast and in the test on MDA-MB-435 was over 10 µM each time.
As to `Fc1cccc(Cl)c1/C=N\N=C1c2ccccc2-c2ccccc21`, the TGI in the test with HS 578T breast and in the test on MDA-MB-435 was over 100 µM in each case.
For the compound `CC(=O)Nc1ccc(S(=O)(=O)NNC(=O)c2cccnc2Nc2ccc(Cl)cc2)cc1`, in the test on HS 578T breast, the GI50 was 23.9 µM and the TGI was over 100 µM. In the test on MDA-MB-435, the GI50 is 3.2 µM and the TGI is over 100 µM.
As for `CC(C)(C)NC(=O)[C@H]1C[C@H]2CCCC[C@H]2CN1C[C@@H](O)[C@H](Cc1ccccc1)NC(=O)[C@H](CC(N)=O)NC(=O)c1ccc2ccccc2n1`, in the test with HS 578T breast, the GI50 is 16.4 µM and the TGI turned out to be 60.2 µM. Also, in the test with MDA-MB-435, the GI50 was 11.9 µM and the TGI was found to be 32.8 µM.
Regarding `COC1CC(OC(=O)c2ccccc2)C(OC(=O)c2ccccc2)C(C)O1` (configuration not stated), the TGI in the test with HS 578T breast and with MDA-MB-435 was over 100 µM each time.
Turning to `O=C1c2ccccc2-n2c1nc1ccccc1c2=O`, the TGI in the test on HS 578T breast was found to be 45.2 µM; in the test with MDA-MB-435, 3.44 µM.
In the case of `COc1cc(Cn2c(-c3nonc3N)nc3ccccc32)ccc1C`, the GI50 in the test with HS 578T breast is 0.326 µM; in the test on MDA-MB-435, 0.168 µM. The TGI stood at 24.4 µM with HS 578T breast and 0.642 µM with MDA-MB-435.
Regarding `Cn1c(=O)c2c(ncn2CN2CCN(Cn3cnc4c3c(=O)n(C)c(=O)n4C)CC2)n(C)c1=O`, the TGI with HS 578T breast and in the test on MDA-MB-435 was over 100 µM each time.
Take `CC(C)[C@H]1C(=O)N[C@@H](CCCN=C(N)N)C(=O)NCC(=O)N[C@@H](CC(=O)O)C(=O)N[C@H](Cc2ccccc2)C(=O)N1C`: in the test on HS 578T breast, the GI50 was 19.8 µM and the TGI was over 100 µM. Besides, in the test on MDA-MB-435, the GI50 is 0.289 µM and the TGI was 0.895 µM.
`CCCCCCN(CCCCCC)CC(O)c1ccc2c3c(cccc13)CC2` (configuration not stated): in the test on HS 578T breast, the GI50 was 10.8 µM and the TGI was 27.2 µM. In addition, in the test on MDA-MB-435, the GI50 was 3.11 µM and the TGI came out at 15.2 µM.
Taken in the same sequence, the figures for `C/C(=N\NC(N)=S)c1nc2ccc(Cl)cc2[nH]1` were 12.2 µM, over 50 µM, 2.95 µM and 24.6 µM.
As to `CCN(CC)CCNc1n[n+]([O-])c2ccccc2[n+]1[O-]`, the TGI was 97.5 µM in the test on HS 578T breast; 50 µM and > 100 µM in the test on MDA-MB-435.
In the case of `COc1ccc(CN2c3ccccc3CCc3ccccc32)cc1F`, in the test with HS 578T breast, the GI50 is 0.487 µM and the TGI is over 100 µM.
